Test results published in US11311520B2, “Substituted dihydroimidazopyridinediones as MKNK1 and MKNK2 inhibitors” (Bayer Pharma Aktiengesellschaft, priority 2017, dated 2022).

Target: human full-length MKNK1 (Homo sapiens (Human), UniProt Q9BUB5, T344D)
Experiment: MKNK1 kinase high ATP assay (TR-FRET)
Type: biochemical
Conditions: 2 mM ATP, 15 min preincubation with enzyme, GST-MKNK1 (T344D)
Procedure, shortened: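 GST-tagged full-length human MKNK1 (1-424, T344D, baculovirus-expressed) preincubated 15 min at 22 °C with compound, then reacted 30 min at 22 °C with 2 mM ATP and 0.06 μM biotinylated peptide (final) in HEPES pH 7.5. Phospho-substrate by TR-FRET (665/622 nm ratio), normalised to no-inhibitor and no-enzyme controls.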

Sequence of human full-length MKNK1 (Q9BUB5 other isoform, or with tags, fused parts or gaps T344D): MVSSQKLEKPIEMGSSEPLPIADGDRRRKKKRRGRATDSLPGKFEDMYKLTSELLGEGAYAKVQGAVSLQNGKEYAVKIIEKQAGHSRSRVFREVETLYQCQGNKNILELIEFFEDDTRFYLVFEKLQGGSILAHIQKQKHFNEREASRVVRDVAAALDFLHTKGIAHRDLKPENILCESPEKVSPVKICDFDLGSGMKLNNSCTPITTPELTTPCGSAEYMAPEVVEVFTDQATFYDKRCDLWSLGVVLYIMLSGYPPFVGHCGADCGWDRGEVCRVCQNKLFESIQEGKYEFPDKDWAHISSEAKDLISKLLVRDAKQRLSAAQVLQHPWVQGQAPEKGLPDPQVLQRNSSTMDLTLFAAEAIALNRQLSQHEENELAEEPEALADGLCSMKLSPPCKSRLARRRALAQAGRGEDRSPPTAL

SMILES | IC50
Cc1cc(Nc2ncnc3sc(C(N)=O)cc23)c(=O)n2c1C(=O)NC21CCCCC1 [Example 97, 4-[(8′-Methyl-1′,5′-dioxo-1′,5′-dihydro-2′H-spiro[cyclohexane-1,3′-imidazo[1,5-a]pyridin]-6′-yl)amino]thieno[2,3-d]pyrimidine-6-carboxamide] | 5.1 nM
Cc1cc(Nc2ncnc3ccc(Cl)cc23)c(=O)n2c1C(=O)NC21CCCC1 [Example 98, 6′-[(6-Chloroquinazolin-4-yl)amino]-8′-methyl-2′H-spiro[cyclopentane-1,3′-imidazo[1,5-a]pyridine]-1′,5′-dione] | 7.6 nM
Cc1cc(Nc2ncnc3ccc(Cl)cc23)c(=O)n2c1C(=O)NC21CCC(F)(F)CC1 [Example 99, 6′-[(6-chloroquinazolin-4-yl)amino]-4,4-difluoro-8′-methyl-2′H-spiro[cyclohexane-1,3′-imidazo[1,5-a]pyridine]-1′,5′-dione] | 18.8 nM
Cc1cc(Nc2ncnc3scnc23)c(=O)n2c1C(=O)NC21CCCC1 [Example 100, 8′-Methyl-6′-([1,3]thiazolo[5,4-d]pyrimidin-7-ylamino)-2′H-spiro[cyclopentane-1,3′-imidazo[1,5-a]pyridine]-1′,5′-dione] | 70.5 nM
Cc1cc(Nc2ncnc3scnc23)c(=O)n2c1C(=O)NC21CCC(F)(F)CC1 [Example 101, 4,4-Difluoro-8′-methyl-6′-([1,3]thiazolo[5,4-d]pyrimidin-7-ylamino)-2′H-spiro[cyclohexane-1,3′-imidazo[1,5-a]pyridine]-1′,5′-dione] | 187 nM
Cc1cc(Nc2ncnc3sc(C(N)=O)cc23)c(=O)n2c1C(=O)NC21CCCC1 [Example 102, 4-[(8′-Methyl-1′,5′-dioxo-1′,5′-dihydro-2′H-spiro[cyclopentane-1,3′-imidazo[1,5-a]pyridin]-6′-yl)amino]thieno[2,3-d]pyrimidine-6-carboxamide] | 5.7 nM
Cc1cc(Nc2ncnc3c2CN(C(=O)OC(C)(C)C)C3)c(=O)n2c1C(=O)NC21CCCC1 [Example 103, tert-Butyl 4-[(8′-methyl-1′,5′-dioxo-1′,5′-dihydro-2′H-spiro[cyclopentane-1,3′-imidazo[1,5-a]pyridin]-6′-yl)amino]-5,7-dihydro-6H-pyrrolo[3,4-d]pyrimidine-6-carboxylate] | 4.7 nM
Cc1cc(Nc2ncnc3c2CN(C(=O)OC(C)(C)C)C3)c(=O)n2c1C(=O)NC21CCC(F)(F)CC1 [Example 104, tert-Butyl 4-[(4,4-difluoro-8′-methyl-1′,5′-dioxo-1′,5′-dihydro-2′H-spiro[cyclohexane-1,3′-imidazo[1,5-a]pyridin]-6′-yl)amino]-5,7-dihydro-6H-pyrrolo[3,4-d]pyrimidine-6-carboxylate] | 30.2 nM
Cc1cc(Nc2ncnc3[nH]ncc23)c(=O)n2c1C(=O)NC21CCC(F)(F)CC1 [Example 105, 4,4-Difluoro-8′-methyl-6′-(1H-pyrazolo[3,4-d]pyrimidin-4-ylamino)-2′H-spiro[cyclohexane-1,3′-imidazo[1,5-a]pyridine]-1′,5′-dione] | 8.3 nM
Cc1cc(Nc2ncnc3[nH]cnc23)c(=O)n2c1C(=O)NC21CCC(F)(F)CC1 [Example 106, 4,4-Difluoro-8′-methyl-6′-(9H-purin-6-ylamino)-2′H-spiro[cyclohexane-1,3′-imidazo[1,5-a]pyridine]-1′,5′-dione] | 3.5 nM
Cc1cc(Nc2ncnc3sc(C(N)=O)c(C)c23)c(=O)n2c1C(=O)NC21CCCC1 [Example 107, 5-Methyl-4-[(8′-methyl-1′,5′-dioxo-1′,5′-dihydro-2′H-spiro[cyclopentane-1,3′-imidazo[1,5-a]pyridin]-6′-yl)amino]thieno[2,3-d]pyrimidine-6-carboxamide] | 111 nM
Cc1cc(Nc2ncnc3cc(Cl)ccc23)c(=O)n2c1C(=O)NC21CCCCC1 [Example 108, 6′-[(7-Chloroquinazolin-4-yl)amino]-8′-methyl-2′H-spiro[cyclohexane-1,3′-imidazo[1,5-a]pyridine]-1′,5′-dione] | 16.5 nM
Cc1cc(Nc2ncnc3cccc(Cl)c23)c(=O)n2c1C(=O)NC21CCCCC1 [Example 109, 6′-[(5-Chloroquinazolin-4-yl)amino]-8′-methyl-2′H-spiro[cyclohexane-1,3′-imidazo[1,5-a]pyridine]-1′,5′-dione] | 10.2 nM
Cc1cc(Nc2ncnc3c(Cl)cc(Cl)cc23)c(=O)n2c1C(=O)NC21CCCCC1 [Example 110, 6′-[(6,8-Dichloroquinazolin-4-yl)amino]-8′-methyl-2′H-spiro[cyclohexane-1,3′-imidazo[1,5-a]pyridine]-1′,5′-dione] | 5580 nM
Cc1cc(Nc2ncnc3c(F)cccc23)c(=O)n2c1C(=O)NC21CCCCC1 [Example 111, 6′-[(8-Fluoroquinazolin-4-yl)amino]-8′-methyl-2′H-spiro[cyclohexane-1,3′-imidazo[1,5-a]pyridine]-1′,5′-dione] | 517 nM
Cc1cc(Nc2ncnc3cc(F)ccc23)c(=O)n2c1C(=O)NC21CCCCC1 [Example 112, 6′-[(7-Fluoroquinazolin-4-yl)amino]-8′-methyl-2′H-spiro[cyclohexane-1,3′-imidazo[1,5-a]pyridine]-1′,5′-dione] | 25.3 nM
Cc1cc(Nc2ncnc3ccc(F)cc23)c(=O)n2c1C(=O)NC21CCCCC1 [Example 113, 6′-[(6-Fluoroquinazolin-4-yl)amino]-8′-methyl-2′H-spiro[cyclohexane-1,3′-imidazo[1,5-a]pyridine]-1′,5′-dione] | 15.4 nM
Cc1cc(Nc2ncnc3cc(F)cc(F)c23)c(=O)n2c1C(=O)NC21CCCCC1 [Example 114, 6′-[(5,7-Difluoroquinazolin-4-yl)amino]-8′-methyl-2′H-spiro[cyclohexane-1,3′-imidazo[1,5-a]pyridine]-1′,5′-dione] | 8.6 nM
Cc1cc(Nc2ncnc3c(F)c(F)ccc23)c(=O)n2c1C(=O)NC21CCCCC1 [Example 115, 6′-[(7,8-Difluoroquinazolin-4-yl)amino]-8′-methyl-2′H-spiro[cyclohexane-1,3′-imidazo[1,5-a]pyridine]-1′,5′-dione] | 208 nM
COc1ccc2c(Nc3cc(C)c4n(c3=O)C3(CCCCC3)NC4=O)ncnc2c1 [Example 116, 6′-[(7-Methoxyquinazolin-4-yl)amino]-8′-methyl-2′H-spiro[cyclohexane-1,3′-imidazo[1,5-a]pyridine]-1′,5′-dione] | 4 nM
COc1ccc2ncnc(Nc3cc(C)c4n(c3=O)C3(CCCCC3)NC4=O)c2c1 [Example 117, 6′-[(6-Methoxyquinazolin-4-yl)amino]-8′-methyl-2′H-spiro[cyclohexane-1,3′-imidazo[1,5-a]pyridine]-1′,5′-dione] | 12.5 nM
COc1cccc2ncnc(Nc3cc(C)c4n(c3=O)C3(CCCCC3)NC4=O)c12 [Example 118, 6′-[(5-Methoxyquinazolin-4-yl)amino]-8′-methyl-2′H-spiro[cyclohexane-1,3′-imidazo[1,5-a]pyridine]-1′,5′-dione] | 66.3 nM
COc1cc2ncnc(Nc3cc(C)c4n(c3=O)C3(CCCCC3)NC4=O)c2cc1OC [Example 119, 6′-[(6,7-Dimethoxyquinazolin-4-yl)amino]-8′-methyl-2′H-spiro[cyclohexane-1,3′-imidazo[1,5-a]pyridine]-1′,5′-dione] | 3 nM
Cc1cc(Nc2ncnc3c(C)cccc23)c(=O)n2c1C(=O)NC21CCCCC1 [Example 120, 8′-methyl-6′-[(8-methylquinazolin-4-yl)amino]-2′H-spiro[cyclohexane-1,3′-imidazo[1,5-a]pyridine]-1′,5′-dione] | > 20000 nM
